Reference: publication PMC12476087, “Loading of Dicarboxylatoplatinum(II)‐NHC Complexes in Bacterial Ghosts as an Advanced Development in Cancer Therapy” (Archiv Der Pharmazie, 2025)

Legend:
Format in all cases: cell-based
[1] = system: A2780cis cells; test: Annexin V/PI staining and FACS analysis, A2780cis; details: w/o BGs, 25 µM, 24 h; for late apoptosis/ necrosis: Annexin V positive/PI positive; for early apoptosis: percentage of cells (Annexin V positive/PI negative)
Method: Therefore, we aimed to evaluate the apoptosis and necrosis inducing potential of complexes 1–4 via a fluorescent‐activated cell sorting (FACS) analysis with Annexin V/propidium iodide (PI) staining in A2780wt and A2780cis cells. Cells were treated for 24 h with both the free and BG‐loaded forms of each compound at 25 µM. Carboplatin (50 µM) served as a reference.
To evaluate the mode of cell death, a FACS measurement after staining with Annexin V and PI was conducted. First, 0.3 × 10^6 A2780wt or A2780cis cells were seeded into 12‐well plates and were allowed to adhere for 24 h. The compounds were added at 25 µM, either diluted from a freshly prepared DMF stock solution (0.1% DMF) or freshly thawed when loaded in BGs. After 24 h of incubation, the cells were harvested with accutase and washed with PBS. The cells were then resuspended in 200 µL of PBS each and 1 µL of PI solution (Sigma‐Aldrich, Taufkirchen, Germany) and 1 µL of Annexin V‐FITC (MabTag GmbH, Friesoythe, Germany) were added to each sample. These were then incubated for 20 min at rt under light‐protected conditions and afterward transferred onto ice. The percentage of apoptotic cells was determined by analyzing Annexin V positive /PI negative cells using a BD LSRFortessa flow cytometer and BD FACSDiva software (both BD Biosciences, San Jose, CA, USA). The apoptosis analysis included the evaluation of early apoptosis (Annexin V positive/PI negative) and late apoptosis/necrosis (Annexin V positive /PI positive).

[2] = system: surface calreticulin on A2780cis cells; test: Immunofluorescent surface calreticulin staining, A2780cis; details: w/o BGs, 25 µM, 24 h
Method: Oxaliplatin, a known metal‐based ICD inducer, was included for comparison.
A2780wt or A2780cis cells were seeded at a density of 1.2 × 10^5 on cover slips and allowed to adhere for 24 h. […] Subsequently, the cells were washed again three times with PBS and they were incubated after adding the secondary antibody (Alexa‐Fluor‐conjugated anti‐rabbit, 1:200), for 45 min at rt. Subsequently, the cells were washed again three times with PBS and they were mounted on slides with mounting medium. After letting them dry overnight, visualization was performed by spinning disk confocal microscopy. […] Acquired images were background subtracted, individual cells were manually segmented, and fluorescence intensity for the calreticulin staining was quantified with a FIJI software. Two repetitions of the experiment were performed, where at least 20 cells per condition were analyzed and the mean intensity of each sample was calculated, respectively.

[3] = system: A2780wt cells; test: ATP luminescence assay, A2780wt; details: w/o BGs, 25 µM, 24 h
Excerpt: As a second potential mode of cell death, ICD has been investigated. Thus, two hallmarks of ICD, namely release of adenosine triphosphate (ATP) and calreticulin translocation to the plasma membrane have been analyzed in detail. Given that some platinum complexes, including the clinically used drug oxaliplatin [27], as well as BGs, are known inducers of ICD, we investigated the potential of BGs loaded with platinum(II)‐NHC complexes to trigger this process. […] Untreated cells (without compound and without BGs) were tested as negative controls.
The ATP assay was performed by employing the commercially available ATPlite Luminescence Assay System 96‐well (revvity, Massachusetts, USA). In brief, A2780wt and A2780cis cells, respectively, were seeded at a density of 8 × 10^3 cells per well into an opaque‐walled 96‐well plate with solid bottoms. […] After incubation, 50 µL of the provided mammalian cell lysis solution was added and incubated for further 5 min on an orbital shaker at 700 rpm. Then, 50 µL of a provided substrate solution was added and again incubated for 5 min on an orbital shaker at 700 rpm. The plate was allowed to dark adapt for 10 min and then the luminescence was measured. Analysis was performed on the BioTek Synergy H1.

[4] = system: A2780wt cells; test: Cellular platinum accumulation (HR CS AAS); details: free complex, 25 µM, 24 h
Method: Stock solutions of the platinum complexes in DMF were freshly prepared and the stocks for the loaded compounds were freshly thawed. […] Cell pellets were prepared by removing the medium, washing twice with PBS, and detaching the cells with accutase (GE Healthcare, Chicago, IL, USA). Subsequently, cells were pelleted by centrifugation (4°C, 380g, 3 min). Each pellet was twice washed with PBS and then stored at −20°C until further analyses.
Cellular accumulation was quantified by measuring the total platinum content using HR CS AAS. […] The resulting lysates were analyzed using AAS at the wavelength λ = 265.9450 nm with a high resolution continuous source (HR CS) spectrometer (contrAA 700; Analytik Jena, Jena, Germany). The ASpect CS software (version 2.3.1.0; Analytik Jena, Jena, Germany) was used to handle the spectrometer. The graphite furnace (GF) sub‐technique was used for this. In the latter, atomization takes place electrothermally in pyrolytically coated graphite tubes bearing an integrated platform (Analytik Jena, Jena, Germany). The GF program is outlined in Supporting Information S2: Table S8. The samples stored in polystyrene vials (0.5 mL; Gesellschaft für Analysentechnik, Salzwedel, Germany) were injected onto this platform employing an MPE 60 autosampler (Analytik Jena, Jena, Germany). As the purge and the protective gas served argon (Alphagaz 1, 99.999%, Air Liquide, Düsseldorf, Germany). The mean integrated absorbance of three injections was adduced during all measurements. […] As the degree of cellular accumulation is indicated as amount of compound (pmol) in the cell lysate relative to its protein mass (mg), the protein content of each sample was determined. Therefore, the method described by Bradford was used. […] Each 20 µL of either albumin standards or the cell lysates were pipetted into a 96‐well plate (Sarstedt, Nürmbrecht, Germany), followed by adding 200 µL of Bradford's reagent (Roti‐Nanoquant, Carl Roth, Karlsruhe, Germany; diluted 1:5 with ultrapure water). After incubating (5 min, rt), the absorbance (λ = 595 nm) was read with a microplate reader (Tecan Infinite M 1000 Pro, Männedorf, Switzerland). All calibration standards and lysates were measured in duplicates.

Compound	late apoptosis/ necrosis [1]	early apoptosis [1]	x‐fold intensity of surface calreticulin compared to untreated cells [2] [x‐fold]	ATP concentration [3] [µM]	uptake into A2780wt cells (total cellular platinum content) [4] [pmol/µg]
CCN1[C]([Pt]([O]C(C)=O)([O]C(C)=O)[SH](C)(C)=O)N(CC)c2ccccc21 [Compound 1, (SP‐4‐2)‐Diacetato(1,3‐diethylbenzimidazol‐2‐ylidene)(dimethylsulfoxide)platinum(II)]	15.0 ± 1.65	21.3 ± 1.18	1.18 ± 0.37	0.20 ± 0.04	1.1
CCN1[C]([Pt]([O]C(=O)C(Cl)Cl)([O]C(=O)C(Cl)Cl)[SH](C)(C)=O)N(CC)c2ccccc21 [Compound 3, (SP‐4‐2)‐Bis(dichloroacetato)(1,3‐diethylbenzimidazol‐2‐ylidene)(dimethylsulfoxide)platinum(II)]	10.6 ± 0.95	11.4 ± 1.82	0.75 ± 0.28	0.15 ± 0.08	1.17
(SP‐4‐2)‐Bis(dichloroacetato)bis(1,3‐diethylbenzimidazol‐2‐ylidene)platinum(II) [Compound 4]	18.1 ± 1.46	22.9 ± 1.67	1.13 ± 0.36	0.32 ± 0.13	1.87
(SP‐4‐2)‐Diacetatobis(1,3‐diethylbenzimidazol‐2‐ylidene)platinum(II) [Compound 2]	10.0 ± 1.77	6.37 ± 1.17	1.02 ± 0.05	0.32 ± 0.03	0.82
